From ChEMBL document CHEMBL1122346, “Antihypertensive activity of 6-arylpyrido[2,3-d]pyrimidin-7-amine derivatives. 2. 7-Acyl amide analogues” (J Med Chem, 1983)

Experiments:
Assay type in all cases: functional
Rattus norvegicus [1] = test: Antihypertensive activity rating in conscious SHR after 10 hr post dose at 10 mg/kg (po); 0=No significant reduction
Rattus norvegicus [2] = test: Antihypertensive activity rating in conscious SHR after 24 h post dose at 10 mg/kg (po); 0=No significant reduction
Rattus norvegicus [3] = test: Antihypertensive activity rating in conscious SHR after 2 hr post dose at 10 mg/kg (po); Range 10-20%
Rattus norvegicus [4] = organism: Rattus norvegicus; test: Maximum percent decrease in blood pressure in SHR ( hour post dose in parentheses)
Rattus norvegicus [5] = test: Antihypertensive activity rating in conscious SHR after 2 hr post dose at 10 mg/kg (po); 0=No significant reduction
Rattus norvegicus [6] = test: Antihypertensive activity rating in conscious SHR after 10 hr post dose at 10 mg/kg (po); Range 10-20%
Rattus norvegicus [7] = test: Antihypertensive activity in conscious spontaneously hypertensive rats 2 hr following 50 mg/kg p.o.; No significant reduction.; conditions: route oral
Rattus norvegicus [8] = test: Antihypertensive activity in conscious spontaneously hypertensive rats 24 hr following 50 mg/kg p.o.; No significant reduction.; conditions: route oral
Rattus norvegicus [9] = test: Antihypertensive activity in conscious spontaneously hypertensive rats 10 hr following 50 mg/kg p.o.; No significant reduction.; conditions: route oral
Rattus norvegicus [10] = test: Antihypertensive activity rating in conscious SHR after 2 hr post dose at 50 mg/kg (po); Range 10-20%
Rattus norvegicus [11] = test: Antihypertensive activity in conscious spontaneously hypertensive rats 10 hr following 50 mg/kg p.o.; Range 10-20%.; conditions: route oral

For CCSCC(=O)Nc1nc2nc(C)ncc2cc1-c1c(Cl)cccc1Cl, which Activity rating (Rattus norvegicus [1]) is on record?
Its Activity rating is 0%.

What about the Activity rating (Rattus norvegicus [2]) of the same compound?
The Activity rating was 0%.

And the Activity rating (Rattus norvegicus [3])?
Its Activity rating is 10%.

What about the Decrease (Rattus norvegicus [4]) of the same compound?
Its Decrease is 19%.

With Cc1ncc2cc(-c3c(Cl)cccc3Cl)c(NC(=O)Cc3c(Cl)cccc3Cl)nc2n1 as the compound, how does the Activity rating (Rattus norvegicus [1]) read?
Its Activity rating is 0%.

And the Activity rating (Rattus norvegicus [2])?
The Activity rating was 0%.

And the Activity rating (Rattus norvegicus [5])?
The Activity rating was 0%.

How did the Activity rating (Rattus norvegicus [1]) turn out when COc1ccccc1C(=O)Nc1nc2nc(C)ncc2cc1-c1c(Cl)cccc1Cl was run?
Its Activity rating is 0%.

And the Activity rating (Rattus norvegicus [2])?
Its Activity rating is 0%.

And the Activity rating (Rattus norvegicus [5])?
Its Activity rating is 0%.

What does the source list for Cc1ncc2cc(-c3c(Cl)cccc3Cl)c(NC(=O)CN(C)C)nc2n1?
Activity rating (Rattus norvegicus [6]): 10%; Activity rating (Rattus norvegicus [2]): 0%; Activity rating (Rattus norvegicus [3]): 10%; Decrease (Rattus norvegicus [4]): 18%

Which Activity rating (Rattus norvegicus [7]) does the source give for CN/C(=N/c1nc2nc(C)ncc2cc1-c1c(Cl)cccc1Cl)SC here?
The Activity rating was 0%.

And the Activity rating (Rattus norvegicus [8])?
The Activity rating was 0%.

What about the Activity rating (Rattus norvegicus [9]) of the same compound?
The Activity rating was 0%.

What does the source list for CC(=O)Nc1nc2ncncc2cc1-c1c(Cl)cccc1Cl?
Activity rating (Rattus norvegicus [10]): 10%; Activity rating (Rattus norvegicus [11]): 10%; Activity rating (Rattus norvegicus [8]): 0%; Decrease (Rattus norvegicus [4]): 16%

What does the source list for CC(=O)Nc1nc2nc(C)nc(C)c2cc1-c1ccccc1C?
Activity rating (Rattus norvegicus [7]): 0%; Activity rating (Rattus norvegicus [8]): 0%; Activity rating (Rattus norvegicus [9]): 0%

Which Activity rating (Rattus norvegicus [10]) does the source give for CC(=O)Nc1nc2nc(C3CC3)ncc2cc1-c1c(Cl)cccc1Cl here?
Its Activity rating is 10%.

And the Activity rating (Rattus norvegicus [11])?
The Activity rating was 10%.

And the Activity rating (Rattus norvegicus [8])?
Its Activity rating is 0%.

And the Decrease (Rattus norvegicus [4])?
Its Decrease is 24%.

Which results are given for Cc1ncc2cc(-c3c(Cl)cccc3Cl)c(=O)n(C)c2n1?
Activity rating (Rattus norvegicus [7]): 0%; Activity rating (Rattus norvegicus [8]): 0%; Activity rating (Rattus norvegicus [9]): 0%

C=CCNC(=O)Nc1nc2nc(C)ncc2cc1-c1c(Cl)cccc1Cl was tested. Which Activity rating (Rattus norvegicus [11]) did it give?
The Activity rating was 10%.

What about the Activity rating (Rattus norvegicus [7]) of the same compound?
The Activity rating was 0%.

What about the Activity rating (Rattus norvegicus [8]) of the same compound?
The Activity rating was 0%.

And the Decrease (Rattus norvegicus [4])?
Its Decrease is 13%.

What does the source list for Cc1ncc2cc(-c3c(Cl)cccc3Cl)c(NC(=O)Nc3ccccc3)nc2n1?
Activity rating (Rattus norvegicus [7]): 0%; Activity rating (Rattus norvegicus [8]): 0%; Activity rating (Rattus norvegicus [9]): 0%

For COc1ccc(CC(=O)Nc2nc3nc(C)ncc3cc2-c2c(Cl)cccc2Cl)cc1OC, which Activity rating (Rattus norvegicus [1]) is on record?
The Activity rating was 0%.

What about the Activity rating (Rattus norvegicus [2]) of the same compound?
Its Activity rating is 0%.

What about the Activity rating (Rattus norvegicus [5]) of the same compound?
The Activity rating was 0%.

Which results are given for CC(=O)Nc1nc2ncncc2cc1-c1ccccc1C?
Activity rating (Rattus norvegicus [7]): 0%; Activity rating (Rattus norvegicus [8]): 0%; Activity rating (Rattus norvegicus [9]): 0%

Which results are given for Cc1ncc2cc(-c3c(Cl)cccc3Cl)c(NC(=O)C(C)C)nc2n1?
Activity rating (Rattus norvegicus [1]): 0%; Activity rating (Rattus norvegicus [2]): 0%; Activity rating (Rattus norvegicus [3]): 10%; Decrease (Rattus norvegicus [4]): 15%

How did the Activity rating (Rattus norvegicus [11]) turn out when C/N=C(\S)Nc1nc2nc(C)ncc2cc1-c1c(Cl)cccc1Cl was run?
The Activity rating was 10%.

And the Activity rating (Rattus norvegicus [7])?
Its Activity rating is 0%.

And the Activity rating (Rattus norvegicus [8])?
Its Activity rating is 0%.

What about the Decrease (Rattus norvegicus [4]) of the same compound?
Its Decrease is 12%.

Which Activity rating (Rattus norvegicus [7]) does the source give for CCNC(=O)Nc1nc2nc(C)ncc2cc1-c1c(Cl)cccc1Cl here?
Its Activity rating is 0%.

What about the Activity rating (Rattus norvegicus [8]) of the same compound?
Its Activity rating is 0%.

What about the Activity rating (Rattus norvegicus [9]) of the same compound?
Its Activity rating is 0%.

CC(=O)Nc1nc2nc(C)ncc2cc1-c1ccccc1C was tested. Which Activity rating (Rattus norvegicus [7]) did it give?
The Activity rating was 0%.

What about the Activity rating (Rattus norvegicus [8]) of the same compound?
The Activity rating was 0%.

What about the Activity rating (Rattus norvegicus [9]) of the same compound?
Its Activity rating is 0%.

For Cc1ncc2cc(-c3c(Cl)cccc3Cl)c(NC(=O)OC(C)C)nc2n1, which Activity rating (Rattus norvegicus [6]) is on record?
The Activity rating was 10%.

What about the Activity rating (Rattus norvegicus [2]) of the same compound?
Its Activity rating is 0%.

And the Activity rating (Rattus norvegicus [5])?
Its Activity rating is 0%.

What about the Decrease (Rattus norvegicus [4]) of the same compound?
Its Decrease is 15%.

For Cc1ncc2cc(-c3c(Cl)cccc3Cl)c(NC(N)=O)nc2n1, which Activity rating (Rattus norvegicus [7]) is on record?
The Activity rating was 0%.

And the Activity rating (Rattus norvegicus [8])?
Its Activity rating is 0%.

And the Activity rating (Rattus norvegicus [9])?
The Activity rating was 0%.

What about the Decrease (Rattus norvegicus [4]) of the same compound?
Its Decrease is 16%.

For Cc1ncc2cc(-c3c(Cl)cccc3Cl)c(NC(=O)C(Cl)Cl)nc2n1, which Activity rating (Rattus norvegicus [6]) is on record?
The Activity rating was 10%.

What about the Activity rating (Rattus norvegicus [2]) of the same compound?
Its Activity rating is 0%.

What about the Activity rating (Rattus norvegicus [3]) of the same compound?
Its Activity rating is 10%.

And the Decrease (Rattus norvegicus [4])?
The Decrease was 16%.

CC(=O)Nc1nc2nc(C)nc(NC(C)=O)c2cc1-c1c(Cl)cccc1Cl was tested. Which Activity rating (Rattus norvegicus [7]) did it give?
Its Activity rating is 0%.

What about the Activity rating (Rattus norvegicus [8]) of the same compound?
The Activity rating was 0%.

What about the Activity rating (Rattus norvegicus [9]) of the same compound?
Its Activity rating is 0%.

Which Activity rating (Rattus norvegicus [7]) does the source give for Cc1ncc2cc(-c3c(Cl)cccc3Cl)c(NC(=O)C3CC3)nc2n1 here?
Its Activity rating is 0%.

And the Activity rating (Rattus norvegicus [8])?
The Activity rating was 0%.

And the Activity rating (Rattus norvegicus [9])?
Its Activity rating is 0%.

With COc1ccc(C(=O)Nc2nc3nc(C)ncc3cc2-c2c(Cl)cccc2Cl)cc1OC as the compound, how does the Activity rating (Rattus norvegicus [6]) read?
The Activity rating was 10%.

And the Activity rating (Rattus norvegicus [2])?
The Activity rating was 0%.

And the Activity rating (Rattus norvegicus [3])?
Its Activity rating is 10%.

And the Decrease (Rattus norvegicus [4])?
The Decrease was 16%.
